From ChEMBL document CHEMBL1909046, “DrugMatrix in vitro pharmacology data” come the findings set out here.

For test [1], the target named is T1, Alpha-1B adrenergic receptor (Rattus norvegicus, UniProt P15823).
T1 sequence (P15823 whole entry): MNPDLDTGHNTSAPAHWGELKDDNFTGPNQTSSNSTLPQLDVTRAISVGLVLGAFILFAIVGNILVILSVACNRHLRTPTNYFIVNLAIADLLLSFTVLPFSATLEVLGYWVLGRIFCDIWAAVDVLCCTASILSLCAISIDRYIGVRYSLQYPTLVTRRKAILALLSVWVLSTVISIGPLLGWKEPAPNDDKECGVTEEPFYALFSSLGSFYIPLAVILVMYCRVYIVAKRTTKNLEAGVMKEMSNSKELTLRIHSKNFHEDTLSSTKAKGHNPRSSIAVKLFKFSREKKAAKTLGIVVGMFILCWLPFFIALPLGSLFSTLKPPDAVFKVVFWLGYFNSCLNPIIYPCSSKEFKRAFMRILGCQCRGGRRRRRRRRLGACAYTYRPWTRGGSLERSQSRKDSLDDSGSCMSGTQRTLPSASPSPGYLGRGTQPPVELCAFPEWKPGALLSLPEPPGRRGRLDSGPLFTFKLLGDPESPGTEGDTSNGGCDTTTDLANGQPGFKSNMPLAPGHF
Kind of test: DRUGMATRIX: Alpha-1B adrenergic receptor radioligand binding (ligand: prazosin). The test is classed as cell membranes, Wistar, Liver, Membrane. The note with it: Not Active = under 50% inhibition at 10 µM; for Ki: read-out: Ki.

Test [2] addresses Beta-2 adrenergic receptor (Homo sapiens, UniProt P07550). The experiment in a line: DRUGMATRIX: Adrenergic beta2 radioligand binding (ligand: [3H] CGP-12177). The test is classed as cell membranes, CHO, Membrane. The following applies: cho; Not Active = under 50% inhibition at 10 µM.
The next test addresses T2, Thromboxane-A synthase (Homo sapiens, UniProt P24557).
T2 sequence (P24557 whole entry): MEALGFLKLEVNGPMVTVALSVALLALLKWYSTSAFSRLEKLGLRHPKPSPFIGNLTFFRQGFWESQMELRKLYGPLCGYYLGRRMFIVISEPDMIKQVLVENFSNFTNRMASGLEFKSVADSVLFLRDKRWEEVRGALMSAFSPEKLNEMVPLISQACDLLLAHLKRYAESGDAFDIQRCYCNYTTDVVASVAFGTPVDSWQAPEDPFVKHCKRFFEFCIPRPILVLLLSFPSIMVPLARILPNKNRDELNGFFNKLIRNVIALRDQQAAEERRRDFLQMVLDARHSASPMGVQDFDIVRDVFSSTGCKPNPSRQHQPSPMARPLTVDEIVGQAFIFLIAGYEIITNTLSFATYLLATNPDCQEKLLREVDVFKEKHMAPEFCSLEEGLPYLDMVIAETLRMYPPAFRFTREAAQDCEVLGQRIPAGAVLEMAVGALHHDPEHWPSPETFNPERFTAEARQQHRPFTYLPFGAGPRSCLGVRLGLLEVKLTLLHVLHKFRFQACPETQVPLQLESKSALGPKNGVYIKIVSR
The experiment in a line: biochemical. The test is classed as tissue-based, Platelet. The note with it: platelet.

A further test deals with Cannabinoid receptor 1 (Homo sapiens, UniProt P21554). It is filed as cell membranes, Chem-1, Membrane. The note with it: chem-1.
A short description of test [3]: DRUGMATRIX: Glutamate, NMDA, Agonism radioligand binding (ligand: [3H] CGP-39653). It is filed as cell membranes, Rattus norvegicus, Wistar, Cerebral cortex, Membrane. The following applies: Not Active = under 50% inhibition at 10 µM.
A short description of test [4]: DRUGMATRIX: Platelet-Derived Growth Factor (PDGF) radioligand binding (ligand: [125I] PDGF). The test is classed as cell-based. The note with it: nih3t3; Not Active = under 50% inhibition at 10 µM.

Cannabinoid receptor 1, sequence (P21554 whole entry): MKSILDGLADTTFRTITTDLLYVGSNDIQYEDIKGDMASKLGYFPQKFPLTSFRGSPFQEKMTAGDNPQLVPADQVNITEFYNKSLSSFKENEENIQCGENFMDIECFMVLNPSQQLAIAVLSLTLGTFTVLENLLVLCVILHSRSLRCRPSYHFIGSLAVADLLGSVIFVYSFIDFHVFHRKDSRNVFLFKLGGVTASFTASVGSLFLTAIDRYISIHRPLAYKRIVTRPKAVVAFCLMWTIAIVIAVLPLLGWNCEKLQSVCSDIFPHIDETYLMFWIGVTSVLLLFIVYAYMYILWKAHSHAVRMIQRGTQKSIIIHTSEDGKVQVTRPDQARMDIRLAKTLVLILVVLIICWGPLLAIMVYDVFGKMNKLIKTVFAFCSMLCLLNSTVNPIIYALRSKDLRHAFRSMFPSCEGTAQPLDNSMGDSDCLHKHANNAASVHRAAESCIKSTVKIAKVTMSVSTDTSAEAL
Beta-2 adrenergic receptor, sequence (P07550 whole entry): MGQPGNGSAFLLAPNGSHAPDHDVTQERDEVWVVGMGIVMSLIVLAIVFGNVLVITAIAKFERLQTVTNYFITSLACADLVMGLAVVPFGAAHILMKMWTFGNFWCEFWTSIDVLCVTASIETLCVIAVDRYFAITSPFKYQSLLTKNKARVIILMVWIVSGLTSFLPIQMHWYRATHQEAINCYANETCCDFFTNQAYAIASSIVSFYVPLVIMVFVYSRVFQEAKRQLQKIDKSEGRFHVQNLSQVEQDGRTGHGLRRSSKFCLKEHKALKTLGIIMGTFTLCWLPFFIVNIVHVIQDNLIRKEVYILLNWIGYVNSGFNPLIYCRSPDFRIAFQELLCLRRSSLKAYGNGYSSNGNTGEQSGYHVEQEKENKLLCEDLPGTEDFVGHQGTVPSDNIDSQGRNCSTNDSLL

With `C[C@@H]1C[C@H]2[C@@H]3CCC4=CC(=O)C=C[C@]4(C)[C@@]3(F)[C@@H](O)C[C@]2(C)[C@H]1C(=O)CO` [DESOXIMETASONE], the IC50 entry (in test [1]; in test [2]; against Thromboxane-A synthase; at Cannabinoid receptor 1; in test [3]; in test [4]) was “Not Active” each time. Besides, the Ki entry in test [3] and in test [4] was “Not Active” each time.
For `C[C@@H]1C[C@H]2[C@@H]3CCC4=CC(=O)C=C[C@]4(C)[C@@]3(F)[C@@H](O)C[C@]2(C)[C@@]1(O)C(=O)CO` [DEXAMETHASONE], the half-inhibitory concentration (IC50) entry (in test [1]; in test [2]; against Thromboxane-A synthase; on Cannabinoid receptor 1; in test [3]; in test [4]) was “Not Active” throughout. The Ki entry in test [3] and in test [4] was “Not Active” each time.
On to `CN(C)CC[C@@H](c1ccc(Cl)cc1)c1ccccn1` [DEXCHLORPHENIRAMINE], for which the 50% inhibitory concentration (IC50) was 15.6 µM in test [1] (read-out: IC50); “Not Active” in test [2]; “Not Active” against Thromboxane-A synthase; “Not Active” at Cannabinoid receptor 1; “Not Active” in test [3]; “Not Active” in test [4]. Further, the Ki in test [1] was 8.61 µM; in test [3], “Not Active”; in test [4], “Not Active”.
In the case of `C[C@@H]1CC[C@@]2(OC1)O[C@H]1[C@@H](O)[C@H]3[C@@H]4CC[C@H]5C[C@@H](O[C@@H]6O[C@H](CO)[C@H](O[C@@H]7O[C@H](CO)C(O)[C@H](O[C@@H]8OC[C@@H](O)[C@H](O)[C@H]8O)[C@H]7O[C@@H]7O[C@H](CO)[C@H](O)[C@H](O[C@@H]8O[C@H](CO)[C@@H](O)[C@H](O)[C@H]8O)[C@H]7O)[C@H](O)[C@H]6O)[C@H](O)C[C@]5(C)[C@H]4CC[C@]3(C)[C@H]1[C@@H]2C` (stereo partly specified) [DIGITONIN], the IC50 result (in test [1]; in test [2]; at Thromboxane-A synthase; against Cannabinoid receptor 1; in test [3]; in test [4]) was “Not Active” throughout. Moreover, the Ki entry in test [3] and in test [4] was “Not Active” throughout.
On to `OC(CCCN1CCCCC1)(c1ccccc1)c1ccccc1` [DIPHENIDOL], for which the IC50 in test [1] (read-out: IC50) was 4.76 µM; in test [2], “Not Active”; against Thromboxane-A synthase, “Not Active”; against Cannabinoid receptor 1, “Not Active”; in test [3], “Not Active”; in test [4], “Not Active”. Also, the results for the inhibition constant Ki in test [1], in test [3] and in test [4] were 2.64 µM, “Not Active” and “Not Active”, respectively.
As for `C[C@H]1O[C@@H](n2cc(F)c(=O)[nH]c2=O)[C@H](O)[C@@H]1O` [DOXIFLURIDINE], the IC50 entry (in test [1]; in test [2]; against Thromboxane-A synthase; against Cannabinoid receptor 1; in test [3]; in test [4]) was “Not Active” each time. The Ki result in test [3] and in test [4] was “Not Active” in each case.
In the case of `Cn1c(=O)c2c(ncn2CC(O)CO)n(C)c1=O` (stereo unspecified) [DYPHYLLINE], the concentration for half-maximal inhibition (IC50) result (in test [1]; in test [2]; against Thromboxane-A synthase; against Cannabinoid receptor 1; in test [3]; in test [4]) was “Not Active” throughout. Moreover, the Ki result in test [3] and in test [4] was “Not Active” each time.
With `CC[C@H]1CN2CCc3cc(OC)c(OC)cc3[C@@H]2C[C@@H]1C[C@H]1NCCc2cc(OC)c(OC)cc21` [EMETINE], the half-maximal inhibitory concentration (IC50) in test [1] (read-out: IC50) is 1.93 µM; in test [2] it was “Not Active”; at Thromboxane-A synthase, “Not Active”; against Cannabinoid receptor 1, “Not Active”; in test [3] it was “Not Active”; in test [4] it was “Not Active”. The inhibition constant (Ki) in test [1] is 1.07 µM; in test [3], “Not Active”; in test [4], “Not Active”.
For `C[C@@H](CO)NC(=O)[C@@H]1C=C2c3cccc4[nH]cc(c34)C[C@H]2N(C)C1` [ERGONOVINE], the IC50 result (in test [1]; in test [2]; against Thromboxane-A synthase; at Cannabinoid receptor 1; in test [3]; in test [4]) was “Not Active” in each case. Further, the Ki result in test [3] and in test [4] was “Not Active” each time.
With `COC(=O)CCc1ccc(OCC(O)CNC(C)C)cc1` (stereo unspecified) [ESMOLOL], the half-inhibitory concentration (IC50) entry (in test [1]; in test [2]; at Thromboxane-A synthase; at Cannabinoid receptor 1; in test [3]; in test [4]) was “Not Active” each time. Also, the inhibition constant Ki entry in test [3] and in test [4] was “Not Active” throughout.
With `CCC1(C)CC(=O)NC1=O` (stereo unspecified) [ETHOSUXIMIDE], the IC50 result (in test [1]; in test [2]; against Thromboxane-A synthase; against Cannabinoid receptor 1; in test [3]; in test [4]) was “Not Active” each time. For the same compound, the Ki result in test [3] and in test [4] was “Not Active” throughout.
In the case of `C#C[C@]1(OC(C)=O)CC[C@H]2[C@@H]3CCC4=C[C@@H](OC(C)=O)CC[C@@H]4[C@H]3CC[C@@]21C` [ETHYNODIOL DIACETATE], the IC50 entry (in test [1]; in test [2]; against Thromboxane-A synthase; against Cannabinoid receptor 1; in test [3]; in test [4]) was “Not Active” in each case. Moreover, the Ki result in test [3] and in test [4] was “Not Active” throughout.
On to `COc1cc([C@@H]2c3cc4c(cc3[C@@H](O[C@@H]3O[C@@H]5CO[C@@H](C)O[C@H]5[C@H](O)[C@H]3O)[C@H]3COC(=O)[C@H]23)OCO4)cc(OC)c1O` [ETOPOSIDE], for which the concentration for half-maximal inhibition (IC50) entry (in test [1]; in test [2]; against Thromboxane-A synthase; at Cannabinoid receptor 1; in test [3]; in test [4]) was “Not Active” in each case. In addition, the inhibition constant Ki entry in test [3] and in test [4] was “Not Active” in each case.
As to `C=CCc1ccc(O)c(OC)c1` [EUGENOL], the concentration for half-maximal inhibition (IC50) entry (in test [1]; in test [2]; against Thromboxane-A synthase; against Cannabinoid receptor 1; in test [3]; in test [4]) was “Not Active” throughout. In addition, the inhibition constant (Ki) result in test [3] and in test [4] was “Not Active” each time.
Turning to `CC(C(=O)O)c1cccc(Oc2ccccc2)c1` (stereo unspecified) [FENOPROFEN], the half-inhibitory concentration (IC50) entry (in test [1]; in test [2]; against Thromboxane-A synthase; against Cannabinoid receptor 1; in test [3]; in test [4]) was “Not Active” in each case. Also, the Ki entry in test [3] and in test [4] was “Not Active” each time.
`CC(C)(C)NC(=O)[C@H]1CC[C@H]2[C@@H]3CC[C@H]4NC(=O)C=C[C@]4(C)[C@H]3CC[C@]12C` [FINASTERIDE]: the IC50 result (in test [1]; in test [2]; on Thromboxane-A synthase; against Cannabinoid receptor 1; in test [3]; in test [4]) was “Not Active” throughout. The Ki entry in test [3] and in test [4] was “Not Active” each time.

What is called IC50 is the concentration at which inhibition is half-maximal. The Ki is the dissociation constant of the complex between target and ligand, obtained from inhibition or displacement.
